Experimental data from patent US8735575B2, “Phenoxazine derivatives and methods of use thereof” (Washington University, priority 2010, dated 2014).
Read-outs that look alike come from different tables or passages of the source.

Columns and labels:
[1] = physchem; assay type: physicochemical
Description: (§1) The logPoct value is widely used in quantitative structure-activity relationship (QSAR) studies and rational drug design as a measure of molecular hydrophobicity. Hydrophobicity affects drug absorption, bioavailability, hydrophobic drug-receptor interactions, metabolism of molecules, and their toxicity. […] The mixture will be incubated with agitation for 30 min until ionic and non-ionic forms of test compound reach equilibrium. Two layers will be separated by centrifugation. Test compound's concentrations in octanol and water layers will be determined by UV/VIS spectrophotometry. The logPoct value will be calculated from log(concentration in n-octanol fraction/concentration in water fraction). Experiments will be repeated at least 3 times with triplicated samples.

[2] = biological target: T1, CAA (Homo sapiens, UniProt P05067); test: In situ binding assay on CAA in fixed brain sections of Tg2576 mice; design: species or system mouse (Tg2576); Binding affinity in situ, Bmax on CAA: unit not given here; settings: for Kd: read-out: Binding affinity in situ, KD (nM) on CAA
[3] = biological target: T1, CAA; test: Binding affinities for CAA on isolated vessels determined by fluorescent binding; settings: read-out: Binding affinity (nM) Ki
Description: The isolation of cerebral vessels for biochemical analysis will be performed as described (78, 98). […] After the cerebellum is removed, the brain will be homogenized in fivefold excess of vessel buffer. An equal volume of 26% dextran will be added, and the tissue will be centrifuged at 6200×g for 30 min at 4° C. The resulting vessels form a pellet, whereas the parenchymal “vessel-free” material forms a solid, compact disc at the top of the solution. The […] will be resuspended in vessel buffer and passed over a 40-μm nylon mesh to capture vessels. Vessel and parenchymal material will be lysed in 5 M guanidine, 50 mM Tris, pH 8, with protease inhibitor cocktail (Roche) for 3 hr.

[4] = tested on: cerebrovascular Aβ deposits; test: In vivo live imaging of CAA amyloid deposits through closed cranial window; design: species or system mouse (Tg2576); settings: 16-month old Tg2576 mice, resorufin 2 μM
Description: FIG. 4 depicts in vivo live imaging of CAA amyloid deposits through closed cranial window. A,B. Closed cranial window was prepared on the right parietal bone of 16-month-old Tg2576 mice. Leptomeningeal arterioles (B) were subjected to live imaging using a fluorescent microscope. […] Scale bars: in C-E: 250 μm, in E: 100 μm.
as §1

[5] = cited from earlier work; for Lipophilicity Poct: data from the previous report (Klunk et al. 2002)
[6] = biological target: neuritic plaques (Homo sapiens, UniProt P05067); test: In situ binding assay on neuritic plaques in fixed brain sections of Tg2576 mice; design: species or system mouse (Tg2576); settings: for Kd: in situ, Tg2576 brain sections, read-out: Binding affinity in situ, KD (nM) on Plaques
Text: (§2) Tg2576 mice are a well characterized mouse model of AD and CAA. They develop congophilic Aβ aggregates within neuritic plaques and leptomeningeal and cortical penetrating arteries at 11 months of age (Hsiao et al., 1996; Kawarabayashi et al., 2001; Fryer et al., 2005; Han et al., 2008).
(§3) The Ki values for CAA vs. neuritic plaques will be calculated utilizing the fluorescent amyloid-ligand methoxy-X34 and fluorescent microscopic method. […] Tissue sections (3 sections per reaction) will be then mounted and coverslipped. Photographs of methoxy-X34 binding images will be taken using a Nikon fluorescent microscope. The fluorescent intensity on cerebral amyloid deposits and neuritic plaques will be separately quantified using Image J software. Finally, Ki values will be calculated by plotting % bound vs. log concentrations of competitors followed by non-linear regression using the GraphPad Prism software. The maximum binding will be obtained from the methoxy-X34 intensity in the absence of competitors, while non-specific binding will be detected by the fluorescent intensity in brain tissues incubated without methoxy-X34.
(§4) Tg2576 mice or littermate controls at 15 months of age will be perfused with phosphatebuffered saline (PBS) for 5 min. Brains will be removed, fixed in 4% paraformaldehyde, and preserved in 30% glucose-PBS solution at 4° C. Brains will be coronally sectioned using a microtome and kept in cryoprotectant solution at −20° C. To label amyloid deposits, brain sections (3 sections per reaction) will be permeabilized with PBS containing 0.25% Triton X-100 for 20 min at room temperature, followed by incubation with 1 μM methoxy-X34 in the presence or absence of competitors at various concentrations (10-9-10-6 M). Sections will be subjected to fluorescent microscopy using a Nikon Eclipse C600 microscope. The fluorescent intensity of methoxy-X34 in vessels and neuritic plaques will be quantified using the ImageJ software. The binding affinity (Ki) will be calculated using the GraphPad Prism software.

[7] = tested on: CAA vs. neuritic plaques; test: Fluorescent co-staining of fixed brain sections of Tg2576 mice; design: species or system mouse (Tg2576); settings: aged Tg2576 mice, FIG. 1
Text: as §2

[8] = tested on: CAA vs. neuritic plaques; test: Staining of paraffin-embedded cortical sections of a human AD patient; settings: autopsied AD patient cortical sections, FIG. 3
Text: as §2

[9] = normal mice, cited from earlier work
[10] = biological target: T1, CAA; test: In situ binding assay on CAA in fixed brain sections of Tg2576 mice; design: species or system mouse (Tg2576)
Text: as §2, §3, §4

Question: What does the source list for `O=c1ccc2nc3ccc(OCc4ccccc4)cc3oc-2c1` [Benzyloxy-resorufin]?
Answer: logP [1]: 2.21; Binding affinity in situ, Bmax on CAA [2]: 410

Question: Which logP [1] does the source give for `CCOc1ccc2nc3ccc(=O)cc-3oc2c1` [Ethoxy-resorufin] here?
Answer: 2.35

Question: And the Ki [3]?
Answer: 262 nM

Question: What about the “Binding affinity in situ, Bmax on CAA” value [2] of the same compound?
Answer: 107

Question: What about the Kd [2] of the same compound?
Answer: 247 nM

Question: What does the source list for `COc1cc(/C=C/c2ccc(O)cc2)ccc1/C=C/c1ccc(O)cc1` [Methoxy-X04, reference compound]?
Answer: fluorescent labeling in live mice, topical application through cranial window [4]: present in both cerebral arteries and parenchymal neuritic plaques; Lipophilicity Poct [5]: ^b2.6

Question: With `[11CH3]Oc1ccc(C=Cc2ccc(C=Cc3ccc(O)c(C(=O)O)c3)cc2)cc1C(=O)O` [Methoxy-X34] as the compound, how does the “Lipophilicity Poct” value [5] read?
Answer: ^b0.19

Question: With `COc1ccc2nc3ccc(=O)cc-3oc2c1` [Methoxy-resorufin] as the compound, how does the logP [1] read?
Answer: 1.95

Question: With `CCCCCOc1ccc2nc3ccc(=O)cc-3oc2c1` [Pentoxy-resorufin] as the compound, how does the logP [1] read?
Answer: 2.34

Question: For `CC(=O)Oc1ccc2nc3ccc(=O)cc-3oc2c1` [Resorufin acetate], which logP [1] is on record?
Answer: 2.79

Question: Which results are given for `O=c1ccc2nc3ccc(O)cc3oc-2c1` [Resorufin]?
Answer: binding to neuritic plaques ([6]; in situ binding assay at a concentration of 160 μM): negligible; logP [1]: 0.387; staining of CAA vs. neuritic plaques [7]: CAA>>>neuritic plaques; staining of 3D6-positive arterioles vs. neuritic plaques [8]: prominent in 3D6-positive cerebral arterioles but was rarely seen in 3D6-positive neuritic plaques; Binding affinity in situ, Bmax on CAA [2]: 1523/ 885

Question: For `C#COc1ccc2nc3ccc(=O)cc-3oc2c1` [WC-5-1], which Kd [6] is on record?
Answer: > 4000 nM

Question: And the “Lipophilicity Poct” value [1]?
Answer: 2.407

Question: And the “Binding affinity in situ, Bmax on CAA” value [2]?
Answer: 485

Question: And the Kd [2]?
Answer: 173 nM

Question: With `O=c1ccc2nc3ccc(OCCF)cc3oc-2c1` [WC-5-2] as the compound, how does the Kd [6] read?
Answer: > 4000 nM

Question: And the “Lipophilicity Poct” value [1]?
Answer: 2.774

Question: And the “Binding affinity in situ, Bmax on CAA” value [2]?
Answer: 869

Question: And the Kd [2]?
Answer: 235 nM

Question: For `O=c1ccc2nc3ccc(OCc4cn(CCF)nn4)cc3oc-2c1` [WC-5-3], which logP [1] is on record?
Answer: 2.04

Question: And the “Binding affinity in situ, Bmax on CAA” value [2]?
Answer: 527

Question: With `COc1cccc(COc2ccc3nc4ccc(=O)cc-4oc3c2)c1` [WC-5-4] as the compound, how does the logP [1] read?
Answer: 2.97

Question: And the “Binding affinity in situ, Bmax on CAA” value [2]?
Answer: 699

Question: Which results are given for `COc1ccc(COc2ccc3nc4ccc(=O)cc-4oc3c2)cc1` [WC-5-5]?
Answer: logP [1]: 1.91; Binding affinity in situ, Bmax on CAA [2]: 135

Question: Which logP [1] does the source give for `O=c1ccc2nc3ccc(OCc4ccc(OCCF)cc4)cc3oc-2c1` [WC-5-7] here?
Answer: 3.42

Question: And the “Binding affinity in situ, Bmax on CAA” value [2]?
Answer: 1304

Question: With `CC(=O)OCCOc1ccc2nc3ccc(=O)cc-3oc2c1` [WC-5-8] as the compound, how does the logP [1] read?
Answer: 2.09

Question: With `O=c1ccc2nc3ccc(OCCBr)cc3oc-2c1` [WC-5-9] as the compound, how does the logP [1] read?
Answer: 2.2

Question: Which “Lipophilicity Poct” value ([1]; 30 min) does the source give for `O=c1ccc2nc3ccc(OCc4ccc(I)cc4)cc3oc-2c1` [WC-5-31] here?
Answer: >4.89??

Question: With `[11CH3]Nc1ccc(-c2nc3ccc(O)cc3s2)cc1` [[11C]PIB] as the compound, how does the “brain uptake at 2 min after injection” value ([9]; 2 min) read?
Answer: 3.2 % ID/g

Question: And the “brain level after washout at 60 min” value ([9]; 60 min)?
Answer: 0.21 % ID/g

Question: What about the “fraction in the brain cleared within 60 min” value ([9]; within 60 min) of the same compound?
Answer: 93%

Question: For `[11CH3]Oc1cc(C=Cc2ccc(O)cc2)ccc1C=Cc1ccc(O)cc1` [[11C]methoxy-X04], which logPoct ([5]; cited study (96)) is on record?
Answer: 2.6

Question: For `CCOc1ccc2nc3ccc(=O)cc-3oc2c1` [ethyl-resorufin], which “binding affinity for CAA deposits, in words” value [10] is on record?
Answer: low nanomolar range

Question: And the “lipophilicity, in words” value [1]?
Answer: moderate lipophilicity

Question: Which results are given for methoxyphenyl-resorufin?
Answer: binding affinity for CAA deposits, in words [10]: low nanomolar range; lipophilicity, in words [1]: moderate lipophilicity

Question: Which “binding affinity for CAA deposits, in words” value [10] does the source give for phenyl-resorufin here?
Answer: low nanomolar range

Question: And the “lipophilicity, in words” value [1]?
Answer: moderate lipophilicity
